Test results from the Kinase Knowledgebase extract (Sharma et al. 2016).

What follows are compounds tested against MAPK14 (human) (UniProt Q16539) (assay: Assessment of MAPK14 Kinase Activity).
Sequence of MAPK14 (human) (Q16539 whole entry, looked up): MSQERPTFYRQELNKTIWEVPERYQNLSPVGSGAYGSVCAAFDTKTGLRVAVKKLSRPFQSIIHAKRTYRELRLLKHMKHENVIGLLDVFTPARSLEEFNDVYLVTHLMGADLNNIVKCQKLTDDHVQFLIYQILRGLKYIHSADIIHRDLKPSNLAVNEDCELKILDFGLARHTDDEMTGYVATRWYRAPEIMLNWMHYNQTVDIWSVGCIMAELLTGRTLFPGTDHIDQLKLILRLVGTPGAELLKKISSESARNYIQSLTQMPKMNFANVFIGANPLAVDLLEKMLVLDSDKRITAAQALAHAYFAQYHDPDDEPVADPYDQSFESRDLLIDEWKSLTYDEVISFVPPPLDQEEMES
In the case of `CCc1ccc(-c2cc(NC(=O)Nc3cc(C(C)(C)C)sc3C(=O)N3CCN(C)C(=O)C3(C)C)cc(F)c2C)cn1`, the IC50 is reported as under 0.1 µM. In the case of `Cc1ccc(NC(=O)Nc2sc(C(C)(C)C)cc2C(=O)N2CCN(C)C(=O)C2(C)C)cc1N1C(=O)CN(C)C1=O`, the IC50 is reported as under 0.1 µM. `CCN1CCN(C(=O)c2sc(C(C)(C)C)cc2NC(=O)Nc2ccc(C)c(-c3ccc(CN4CCOCC4)nc3)c2)C(C)(C)C1=O` was tested, and the IC50 was under 0.1 µM. `Cc1ccc(NC(=O)Nc2sc(C(C)(C)C)cc2C(=O)N2CCNC(=O)C2(C)C)cc1-c1ccc(OCCCc2ccccn2)nc1` was tested, and the IC50 was under 0.1 µM. `Cc1ccc(NC(=O)Nc2sc(C(C)(C)C)cc2C(=O)N2CCNC(=O)C2(C)C)cc1-c1ncccn1` was tested, and the IC50 was under 0.1 µM. Work on `Cc1ccc(NC(=O)Nc2sc(C(C)(C)C)cc2C(=O)N2CCN(C)C(=O)C2(C)C)cc1-c1ccc(OC(C)C)nc1` yielded an IC50 of under 0.1 µM. `CCc1ccc(-c2cc(NC(=O)Nc3sc(C(C)(C)C)cc3C(=O)N3CCN(C)C(=O)C3(C)C)cc(F)c2C)cn1` was tested, and the IC50 was under 0.1 µM. With `C#Cc1cc(NC(=O)Nc2sc(C(C)(C)C)cc2C(=O)N2CCNC(=O)C2(C)C)ccc1C` the IC50 was under 0.1 µM. For `COc1ccc(-c2cc(NC(=O)Nc3sc(C(C)(C)C)cc3C(=O)N3CCNC(=O)C3(C)C)ccc2C)nc1`, the IC50 was under 0.1 µM. `C#Cc1ccc(-c2cc(NC(=O)Nc3sc(C(C)(C)C)cc3C(=O)N3CCNC(=O)C3(C)C)ccc2C)cn1` gave an IC50 of under 0.1 µM. Work on `Cc1ccc(NC(=O)Nc2sc(C(C)(C)C)cc2C(=O)N2CCNC(=O)C2(C)C)cc1C#N` yielded an IC50 of under 0.1 µM. `Cc1ccc(NC(=O)Nc2sc(C(C)(C)C)cc2C(=O)N2CCNC(=O)C2(C)C)cc1-c1ccc(N2CCCCC2)nc1` was tested, and the IC50 was under 0.1 µM. `CCc1ccc(-c2cc(NC(=O)Nc3cc(C(C)(C)C)sc3C(=O)N3CCN(C)C(=O)C3(C)C)ccc2C)cn1` was tested, and the IC50 was under 0.1 µM. In the case of `Cc1ccc(NC(=O)Nc2sc(C(C)(C)C)cc2C(=O)N2CCN(C)C(=O)C2(C)C)cc1-c1ccc(CN2CCOCC2)nc1`, the IC50 is reported as under 0.1 µM. `COCCOc1ccc(-c2cc(NC(=O)Nc3sc(C(C)(C)C)cc3C(=O)N3CCN(C)C(=O)C3(C)C)ccc2C)cn1` gave an IC50 of under 0.1 µM. `Cc1ccc(NC(=O)Nc2sc(C(C)(C)C)cc2C(=O)N2CCNS(=O)(=O)CC2)cc1-c1ccc(CN2CCOCC2)nc1` gave an IC50 of under 0.1 µM. Compound `Cc1nnc(-c2ccc(-c3cc(NC(=O)Nc4sc(C(C)(C)C)cc4C(=O)N4CCN(C)C(=O)C4(C)C)ccc3C)cn2)o1` has an IC50 of under 0.1 µM. Work on `Cc1ccc(NC(=O)Nc2sc(C(C)(C)C)cc2C(=O)N2CCNC(=O)C2(C)C)cc1-c1ccc(N(C)C)nc1` yielded an IC50 of under 0.1 µM. Work on `Cc1ccc(NC(=O)Nc2sc(C(C)(C)C)cc2C(=O)N2CCNC(=O)C2(C)C)cc1C#CCN1CCOCC1` yielded an IC50 of under 0.1 µM. `Cc1ccc(NC(=O)Nc2sc(C(C)(C)C)cc2C(=O)N2CCNC(=O)C2(C)C)cc1-c1ccc(N2CCN(C)CC2)cn1` showed an IC50 of under 0.1 µM. `COc1ccc(-c2cc(NC(=O)Nc3sc(C(C)(C)C)cc3C(=O)N3CCNC(=O)C3(C)C)cc(F)c2C)cn1` showed an IC50 of under 0.1 µM. `Cc1ccc(NC(=O)Nc2cc(C(C)(C)C)sc2C(=O)N2CCNC(=O)C2(C)C)cc1-c1ccc(N2CCOCC2)nc1` showed an IC50 of under 0.1 µM. Work on `Cc1ccc(NC(=O)Nc2sc(C(C)(C)C)cc2C(=O)N2CCN(C)C(=O)C2(C)C)cc1-c1cnc(NCC(O)CO)nc1` (stereo not drawn) yielded an IC50 of under 0.1 µM. `Cc1ncc(NC(=O)Nc2sc(C(C)(C)C)cc2C(=O)N2CCN(C)C(=O)C2(C)C)cc1C#CC1CC1` was tested, and the IC50 was under 0.1 µM. `Cc1ccc(NC(=O)Nc2sc(C(C)(C)C)cc2C(=O)N2CCN(C)C(=O)C2(C)C)cc1-c1ccc(C[N+]2([O-])CCOCC2)nc1` gave an IC50 of under 0.1 µM. For `Cc1ccc(NC(=O)Nc2sc(C(C)(C)C)cc2C(=O)N2CCN(C)C(=O)C2(C)C)cc1-c1ccc(N2CCOCC2)nc1`, the IC50 was under 0.1 µM. `COc1ccc(-c2ccc(C)c(NC(=O)Nc3sc(C(C)(C)C)cc3C(=O)N3CCNC(=O)C3(C)C)c2)cn1` was tested, and the IC50 was under 0.1 µM. Work on `CNC(=O)c1ccc(-c2cc(NC(=O)Nc3sc(C(C)(C)C)cc3C(=O)N3CCNC(=O)C3(C)C)ccc2C)cn1` yielded an IC50 of under 0.1 µM. With `Cc1ccc(NC(=O)Nc2sc(C(C)(C)C)cc2C(=O)N2CCN(C)C(=O)C2(C)C)cc1-c1ccc(N2CCN(C)CC2)nc1` the IC50 was under 0.1 µM. `Cc1ccc(NC(=O)Nc2cc(C(C)(C)C)oc2C(=O)N2CCNC(=O)C2(C)C)cc1-c1ccc(OCCN(C)C)nc1` showed an IC50 of under 0.1 µM. In the case of `Cc1ccc(NC(=O)Nc2sc(C(C)(C)C)cc2C(=O)N2CCNC(=O)C2(C)C)cc1-c1cccnc1`, the IC50 is reported as under 0.1 µM. With `Cc1ccc(NC(=O)Nc2sc(C(C)(C)C)cc2C(=O)N2CCNC(=O)C2(C)C)cc1-c1ccc(OCCCN2CCOCC2)nc1` the IC50 was under 0.1 µM. In the case of `Cc1ccc(NC(=O)Nc2sc(C(C)(C)C)cc2C(=O)N2CCNC(=O)C2(C)C)cc1C#C[Si](C)(C)C`, the IC50 is reported as under 0.1 µM. Compound `Cc1cc(NC(=O)Nc2cc(C(C)(C)C)sc2C(=O)N2CCNC(=O)C2(C)C)cc(-c2ccc(N3CCOCC3)cn2)c1` has an IC50 of under 0.1 µM. `COc1ccc(NC(=O)Nc2sc(C(C)(C)C)cc2C(=O)N2CCNC(=O)C2(C)C)c(C)c1-c1ccncc1` showed an IC50 of under 0.1 µM. With `CCNC(=O)c1ccc(-c2cc(NC(=O)Nc3cn(C(C)(C)C)nc3C(=O)N3CCNC(=O)C3(C)C)ccc2C)cn1` the IC50 was under 0.1 µM. For `CON(C)C(=O)c1ccc(-c2cc(NC(=O)Nc3sc(C(C)(C)C)cc3C(=O)N3CCN(C)C(=O)C3(C)C)ccc2C)cn1`, the IC50 was under 0.1 µM. `Cc1ccc(NC(=O)Nc2cn(C(C)(C)C)nc2C(=O)N2CCNC(=O)C2(C)C)cc1-c1ccc(CN2CCOCC2)cn1` gave an IC50 of under 0.1 µM.
